From ChEMBL document CHEMBL1138977, “Design and synthesis of novel 5,6-disubstituted uracil derivatives as potent inhibitors of thymidine phosphorylase” (Bioorg Med Chem Lett, 2006)

Target: Thymidine phosphorylase (Escherichia coli K-12, UniProt P07650)
Assay: Inhibition of Escherichia coli TP

Thymidine phosphorylase, sequence (P07650 whole entry): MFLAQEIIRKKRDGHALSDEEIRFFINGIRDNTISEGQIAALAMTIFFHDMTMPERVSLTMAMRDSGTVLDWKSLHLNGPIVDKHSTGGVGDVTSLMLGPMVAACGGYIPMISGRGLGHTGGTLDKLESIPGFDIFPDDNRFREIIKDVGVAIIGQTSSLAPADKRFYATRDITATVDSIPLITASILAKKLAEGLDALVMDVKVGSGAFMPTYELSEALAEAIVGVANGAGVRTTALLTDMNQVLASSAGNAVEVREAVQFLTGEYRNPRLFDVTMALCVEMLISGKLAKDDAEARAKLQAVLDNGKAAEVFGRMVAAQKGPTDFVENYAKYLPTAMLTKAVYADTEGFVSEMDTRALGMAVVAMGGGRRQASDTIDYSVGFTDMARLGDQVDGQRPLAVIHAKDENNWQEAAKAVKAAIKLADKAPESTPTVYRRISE

Structure (SMILES) | IC50 [µM]
OCCC1CCN(c2nc(O)nc(O)c2Br)CC1 | 6.1
Oc1nc(O)c(Br)c(NCCNc2nc(O)nc(O)c2Br)n1 | 2.5
OCC1CCN(c2nc(O)nc(O)c2Br)CC1 | 5.5
OCC1CCCN(c2nc(O)nc(O)c2Br)C1 (stereo unspecified) | 6.5
OCC1CCCCN1c1nc(O)nc(O)c1Br (stereo unspecified) | 6.5
Oc1nc(O)c(Br)c(NC2CC2)n1 | 3.5
Oc1nc(O)c(Cl)c(NC2CC2)n1 | 10.1
Oc1nc(O)c(Cl)c(N2CCN(c3nc(O)nc(O)c3Cl)CC2)n1 | 8.7
Nc1[nH]c(=O)[nH]c(=O)c1Cl | 4
Oc1nc(O)c(Br)c(N2CCCCC2)n1 | 9.1
Oc1nc(O)c(Br)c(N2CCN(c3nc(O)nc(O)c3Br)CC2)n1 | 2.3
NNc1nc(O)nc(O)c1Cl | 9.1

More lines, now with the values ahead:

IC50 [µM] | Structure (SMILES)
2 | Oc1nc(O)c(Br)c(N2CCC2)n1
7.3 | Oc1nc(O)c(Cl)c(N2CCCCC2)n1
14 | Oc1nc(O)c(Cl)c(N2CCC2)n1
10.4 | Oc1nc(O)c(Cl)c(N2CCOCC2)n1
5.4 | OCC1CCCN(c2nc(O)nc(O)c2Cl)C1 (stereo unspecified)
11.6 | Oc1nc(O)c(Br)c(N2CCOCC2)n1
4.3 | OCC1CCCCN1c1nc(O)nc(O)c1Cl (stereo unspecified)
4.4 | Oc1nc(O)c(Cl)c(N2CCCC2)n1
5.5 | OCCC1CCN(c2nc(O)nc(O)c2Cl)CC1
